Experimental findings from US9914737B2, “Triazolopyrimidinone or triazolopyridinone derivatives, and use thereof” (ST PHARM CO., LTD., priority 2014, dated 2018) are described below.

Where a name gives a salt, the structure may show the parent alone. Read-outs that look alike come from different tables or passages of the source.

The IC50 is the concentration that inhibits the measured activity by half.

This assay deals with T1, tankyrase 1 (Homo sapiens, UniProt O95271).
T1 construct: purchased Trevigen 4700-096-K
T1 sequence (O95271 1-1327): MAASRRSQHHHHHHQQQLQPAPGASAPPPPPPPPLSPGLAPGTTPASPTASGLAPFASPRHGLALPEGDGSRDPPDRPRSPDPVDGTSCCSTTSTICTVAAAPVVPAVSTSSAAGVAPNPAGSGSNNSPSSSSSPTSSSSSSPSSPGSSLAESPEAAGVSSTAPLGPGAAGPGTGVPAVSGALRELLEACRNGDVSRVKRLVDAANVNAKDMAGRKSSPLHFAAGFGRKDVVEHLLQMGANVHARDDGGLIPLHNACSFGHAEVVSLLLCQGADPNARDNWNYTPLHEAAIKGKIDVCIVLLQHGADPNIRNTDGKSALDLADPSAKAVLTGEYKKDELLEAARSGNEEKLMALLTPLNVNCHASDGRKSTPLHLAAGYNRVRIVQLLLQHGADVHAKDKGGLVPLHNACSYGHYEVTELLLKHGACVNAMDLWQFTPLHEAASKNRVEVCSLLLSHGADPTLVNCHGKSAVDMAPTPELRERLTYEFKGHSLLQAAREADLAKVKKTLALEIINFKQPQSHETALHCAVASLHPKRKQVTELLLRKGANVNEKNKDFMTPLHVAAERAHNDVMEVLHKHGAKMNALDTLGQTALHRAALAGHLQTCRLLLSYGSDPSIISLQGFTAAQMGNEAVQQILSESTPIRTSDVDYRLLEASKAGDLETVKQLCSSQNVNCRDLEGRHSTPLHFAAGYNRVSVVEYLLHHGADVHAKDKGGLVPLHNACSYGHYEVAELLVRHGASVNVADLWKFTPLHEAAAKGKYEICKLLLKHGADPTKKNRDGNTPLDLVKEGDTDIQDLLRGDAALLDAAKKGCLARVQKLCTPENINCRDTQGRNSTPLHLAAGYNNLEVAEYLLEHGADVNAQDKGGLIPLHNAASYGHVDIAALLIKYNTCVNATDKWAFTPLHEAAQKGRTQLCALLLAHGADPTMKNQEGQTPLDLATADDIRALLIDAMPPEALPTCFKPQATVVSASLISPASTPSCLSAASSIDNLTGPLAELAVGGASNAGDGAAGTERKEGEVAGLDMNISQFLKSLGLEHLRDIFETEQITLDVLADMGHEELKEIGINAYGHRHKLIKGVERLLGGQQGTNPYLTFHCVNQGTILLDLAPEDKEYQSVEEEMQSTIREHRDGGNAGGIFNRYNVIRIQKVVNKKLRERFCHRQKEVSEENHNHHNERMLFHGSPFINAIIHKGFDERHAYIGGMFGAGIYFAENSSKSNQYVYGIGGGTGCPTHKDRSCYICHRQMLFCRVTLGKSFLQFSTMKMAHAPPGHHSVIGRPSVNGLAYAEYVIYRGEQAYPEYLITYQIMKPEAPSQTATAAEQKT
Put plainly: Analysis of activity of tankyrase 1 (Trevigen kit, ELISA absorbance at 450 nm). It is filed as biochemical. The protocol:
Activities of novel compounds synthesized according to Examples 1 to 72 against tankyrase 1 were analyzed using a Trevigen kit (Cat. No. 4700-096-K). Poly PAR histone protein-coated 96-well plate, anti-PAR monoclonal antibody and goat anti-mouse IgG-HRP were used for measurement of absorbance by ELISA method. Specifically, 20× I-PAR assay buffer was diluted to 1× by adding water, and 50 μL of the diluted buffer was added to each well of the 96-well plate followed by reacting at rt for 30 min. Then, the supernatant was completely removed from each well and 10 μL of 1× I-PAR assay buffer and 15 μL of assay substrate were added to each well along with 1 μL of a 50× solution of inhibitors to be tested, which were the compounds obtained in the Examples 1 to 72. 10 mUnits/μL of tankyrase 1 enzyme was diluted 50-fold with 1× I-PAR assay buffer and 25 μL of the diluted enzyme was added to each well and reacted while stirring at rt for 30 min. One without any compound of the present invention was used as a positive control and another containing 1× I-PAR assay buffer with the same volume instead of tankyrase 1 enzyme was used as a negative control. Upon completion of the reaction, 200 μL of PBSX, which was prepared by adding 0.1% triton X-100 to PBS, was added and removed and this washing process was repeated twice. Washing was repeated twice more using PBS in the same manner. 5× antibody diluent was diluted with distilled water to 1× concentration, 50 μL of the diluted goat anti-mouse IgG-HRP to 1/2000 was added to each well and reacted while stirring at rt for 30 min. Washes were carried out twice using PBSX and PBS, respectively. After adding 50 μL of TACS-sapphire to each well of the plate, the plate was blocked from light to react for 10 min to 15 min and the color of the reaction solution turned blue. To stop the reaction, 50 μL of 0.2N HCl was added to turn the solution yellow. Finally, the absorbance of the resulting solution was measured at 450 nm.
(An ELISA detects its analyte on a solid surface through an enzyme-linked reagent.)

Setting [1] is: tankyrase 1 enzyme, Trevigen kit Cat. No. 4700-096-K, 30 min at rt, read-out: TNKS1 (IC50).

As for `Cn1nnc2c(=O)[nH]c(N3CCN(c4c(F)cc(OCCN5CCC(N)CC5)cc4F)CC3)nc21` [compound 39, 5-(4-(4-(2-(4-Aminopiperidin-1-yl)ethoxy)-2,6-difluorophenyl)piperazin-1-yl)-3-methyl-3H-[1,2,3]triazolo[4,5-d]pyrimidin-7(6H)-one], the IC50 under setting [1] was found to be 22.7 nM.
Consider `Cn1nnc2c(=O)[nH]c(N3CCN(c4c(F)cc(OCC(O)CO)cc4F)CC3)cc21` (stereo not drawn) [compound 59, 6-(4-(4-(2,3-Dihydroxypropoxy)-2,6-difluorophenyl)piperazin-1-yl)-1-methyl-1H-[1,2,3]triazolo[4,5-c]pyridin-4(5H)-one], for which the IC50 under setting [1] turned out to be 16 nM.
On the same count and under the same terms, the result for `Cn1nnc2c(=O)[nH]c(N3CCN(c4c(F)cc(OCCN5CCOCC5)cc4F)CC3)cc21` [compound 54, 6-(4-(2,6-Difluoro-4-(2-morpholinoethoxy)phenyl)piperazin-1-yl)-1-methyl-1H-[1,2,3]triazolo[4,5-c]pyridin-4(5H)-one] reads 11 nM.
On to `COCCOc1cc(F)c(N2CCN(c3cc4c(nnn4C)c(=O)[nH]3)CC2)c(F)c1` [compound 53, 6-(4-(2,6-Difluoro-4-(2-methoxyethoxy)phenyl)piperazin-1-yl)-1-methyl-1H[1,2,3]triazolo[4,5-c]pyridin-4(5H)-one], for which the IC50 came out at 22.7 nM.
Regarding `CN1CCN(CCOc2cc(F)c(N3CCN(c4nc5c(nnn5C)c(=O)[nH]4)CC3)c(F)c2)C(=O)C1` [compound 38, 5-(4-(2,6-Difluoro-4-(2-(4-methyl-2-oxopiperazin-1-yl)ethoxy)phenyl)piperazin-1-yl)-3-methyl-3H-[1,2,3]triazolo[4,5-d]pyrimidin-7(6H)-one], the IC50 under setting [1] amounted to 43 nM.
Consider `Cn1nnc(C2CCN(c3cc4c(nnn4C)c(=O)[nH]3)CC2)n1` [compound 66, 1-Methyl-6-(4-(2-methyl-2H-tetrazol-5-yl)piperidin-1-yl)-1H-[1,2,3]triazolo[4,5-c]pyridin-4(5H)-one], for which the IC50 under setting [1] is 331 nM.
As for `Cn1nnc2c(=O)[nH]c(N3CCN(c4c(F)cc(OC5COC5)cc4F)CC3)cc21` [compound 62, 6-(4-(2,6-Difluoro-4-(oxetan-3-yloxy)phenyl)piperazin-1-yl)-1-methyl-1H-[1,2,3]triazolo[4,5-c]pyridin-4(5H)-one], half-maximal inhibition (IC50) required 22.1 nM.
On to `COCCOc1cc(F)c(C2(O)CCN(c3nc4c(nnn4C)c(=O)[nH]3)CC2)c(F)c1` [compound 25, 5-(4-(2,6-Difluoro-4-(2-methoxyethoxy)phenyl)-4-hydroxypiperidin-1-yl)-3-methyl-3H-[1,2,3]triazolo[4,5-d]pyrimidin-7(6H)-one], for which, under setting [1], the IC50 is 33.1 nM.
Regarding `Cn1nnc2c(=O)[nH]c(N3CCN(c4ccccc4F)CC3)nc21` [compound 1, 5-(4-(2-Fluorophenyl)piperazin-1-yl)-3-methyl-3H-[1,2,3]triazolo[4,5-d]pyrimidin-7(6H)-one], the IC50 turned out to be 66.7 nM.
`Cn1nnc2c(=O)[nH]c(N3CCN(c4c(F)cc(OCCO)cc4F)CC3)nc21` [compound 7, 5-(4-(2,6-Difluoro-4-(2-hydroxyethoxy)phenyl)piperazin-1-yl)-3-methyl-3H-[1,2,3]triazolo[4,5-d]pyrimidin-7(6H)-one]: under setting [1], the IC50 was determined as 44 nM.
Still for that read-out and setting: the result for `Cn1nnc2c(=O)[nH]c(N3CCN(c4c(F)cc(OCc5ccccc5)cc4F)CC3)nc21` [compound 3, 5-(4-(4-(Benzyloxy)-2,6-difluorophenyl)piperazin-1-yl)-3-methyl-3H-[1,2,3]triazolo[4,5-d]pyrimidin-7(6H)-one] reads 207 nM; that for `COCCOc1cc(F)c(C2CCN(c3nc4c(nnn4C)c(=O)[nH]3)CC2)c(F)c1` [compound 45, 5-(4-(2,6-Difluoro-4-(2-methoxyethoxy)phenyl)piperidin-1-yl)-3-methyl-3H-[1,2,3]triazolo[4,5-d]pyrimidin-7(6H)-one], 37.6 nM.
The same measure, in the same setting: the result for `Cn1nnc2c(=O)[nH]c(N3CCN(c4c(F)cc(OCC(O)CO)cc4F)CC3)nc21` (stereo not drawn) [compound 12, 5-(4-(4-(2,3-Dihydroxypropoxy)-2,6-difluorophenyl)piperazin-1-yl)-3-methyl-3H-[1,2,3]triazolo[4,5-d]pyrimidin-7(6H)-one] reads 12.9 nM; that for `COCCOc1cc(F)c(C2=CCN(c3nc4c(nnn4C)c(=O)[nH]3)CC2)c(F)c1` [compound 44, 5-(4-(2,6-Difluoro-4-(2-methoxyethoxy)phenyl)-5,6-dihydropyridin-1(2H)-yl)-3-methyl-3H-[1,2,3]triazolo[4,5-d]pyrimidin-7(6H)-one], 52.9 nM; that for `COCCN(C)Cc1cc(F)c(N2CCN(c3nc4c(nnn4C)c(=O)[nH]3)CC2)c(F)c1` [compound 20, 5-(4-(2,6-Difluoro-4-(((2-methoxyethyl)(methyl)amino)methyl)phenyl)piperazin-1-yl)-3-methyl-3H-[1,2,3]triazolo[4,5-d]pyrimidin-7(6H)-one], 83.1 nM.
For `Cn1nnc2c(=O)[nH]c(N3CCN(c4c(F)cc(OCC(=O)N5CCCC5)cc4F)CC3)nc21` [compound 36, 5-(4-(2,6-Difluoro-4-(2-oxo-2-(pyrrolidin-1-yl)ethoxy)phenyl)piperazin-1-yl)-3-methyl-3H-[1,2,3]triazolo[4,5-d]pyrimidin-7(6H)-one], the IC50 under setting [1] worked out at 39.6 nM.
Still for that read-out and setting: the result for `Cn1nnc2c(=O)[nH]c(N3CCN(c4c(F)cc(OCCN5CCOCC5)cc4F)CC3)nc21` [compound 4, 5-(4-(2,6-Difluoro-4-(2-morpholinoethoxy)phenyl)piperazin-1-yl)-3-methyl-3H-[1,2,3]triazolo[4,5-d]pyrimidin-7(6H)-one] reads 38.6 nM; that for `Cn1nnc2c(=O)[nH]c(N3CCN(c4c(F)cc(OCCN)cc4F)CC3)nc21` [compound 37, 5-(4-(4-(2-Aminoethoxy)-2,6-difluorophenyl)piperazin-1-yl)-3-methyl-3H-[1,2,3]triazolo[4,5-d]pyrimidin-7(6H)-one], 28.1 nM.
As for `CC(O)c1cc(F)c(N2CCN(c3cc4c(nnn4C)c(=O)[nH]3)CC2)c(F)c1` (stereo not drawn) [compound 63, 6-(4-(2,6-Difluoro-4-(1-hydroxyethyl)phenyl)piperazin-1-yl)-1-methyl-1H[1,2,3]triazolo[4,5-c]pyridin-4(5H)-one], the IC50 under setting [1] was determined as 27.3 nM.
Consider `COCCCc1cc(F)c(N2CCN(c3nc4c(nnn4C)c(=O)[nH]3)CC2)c(F)c1` [compound 40, 5-(4-(2,6-Difluoro-4-(3-methoxypropyl)phenyl)piperazin-1-yl)-3-methyl-3H-[1,2,3]triazolo[4,5-d]pyrimidin-7(6H)-one], for which the IC50 under setting [1] amounted to 93.1 nM.
The same measure, in the same setting: the result for `C[C@H](N)C(=O)OCCOc1cc(F)c(N2CCN(c3nc4c(nnn4C)c(=O)[nH]3)CC2)c(F)c1` [compound 11, (S)-2-(3,5-difluoro-4-(4-(3-methyl-7-oxo-6,7-dihydro-3H-[1,2,3]triazolo[4,5-d]pyrimidin-5-yl)piperazin-1-yl)phenoxy)ethyl2-aminopropanoate hydrochloride] reads 14.5 nM.
